From patent publication US12495798B2, “Nicotinamide compound and herbicidal composition comprising compound” (KOREA RESEARCH INSTITUTE OF CHEMICAL TECHNOLOGY, priority 2019, dated 2025)

Assays:
Format in all cases: in vivo
sorghum = assay: Herbicidal activity test against upland field weeds (foliar treatment test); settings: Sorghum, 50 g ai/ha, scale 0-100
Outline: (§1)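 Weeds were raised from seed or rootstocks in horticultural soil in a greenhouse (30±5° C., 14/10 h light/dark), then foliage was hand-sprayed with compound at 50 or 75 g a.i./ha in 50% acetone with 0.1% Tween-20. Control was scored visually 0–100 against untreated plants after 14 days, or 21 if needed.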

quack grass = assay: as above; design: key to Foliar treatment herbicidal activity, quack grass: 0 (no control); 100 (complete control); settings: 50 g ai/ha, scale 0-100
Outline: as §1

indian jointvetch = assay: as above; design: key to Foliar treatment herbicidal activity, Indian jointvetch: 0 (no control); 100 (complete control); settings: 50 g ai/ha, scale 0-100
Outline: as §1

velvetleaf [1] = assay: as above; design: key to Foliar treatment herbicidal activity, velvet leaf: 0 (no control); 100 (complete control); settings: 50 g ai/ha; for pest or weed control at 50 g/ha: Abutilon theophrasti, scale 0-100, read-out: Foliar treatment herbicidal activity, velvet leaf
Outline: as §1

cocklebur [2] = assay: as above; settings: Xanthium strumarium, 50 g ai/ha, scale 0-100
Outline: as §1

bindweed = assay: as above; settings: 50 g ai/ha, scale 0-100
Outline: as §1

barnyard grass = assay: Herbicidal activity test against upland field weeds (soil treatment test); design: key to Soil treatment herbicidal activity, barnyard grass: 0 (no control); 100 (complete control); settings: 50 g ai/ha, scale 0 (no control) to 100 (complete control)
Outline: (§2)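 Pre-emergence test: seeds or rootstocks were sown in fertilized sandy loam, and the next day the soil surface was sprayed with compound at 50 or 75 g a.i./ha in 50% acetone/0.1% Tween-20. Plants were grown in a greenhouse (30±5 °C, 14/10 h light/dark), then visually scored 0–100 against untreated at 14 d (21 d if needed).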

velvetleaf [3] = assay: as above; design: key to Soil treatment herbicidal activity, velvet leaf: 0 (no control); 100 (complete control); settings: 50 g ai/ha, scale 0 (no control) to 100 (complete control)
Outline: as §2

cocklebur [4] = assay: as above; design: key to Soil treatment herbicidal activity, Cocklebur: 0 (no control); 100 (complete control); settings: 50 g ai/ha, scale 0 (no control) to 100 (complete control); for pest or weed control at 50 g/ha: Xanthium strumarium
Outline: as §2

corn = assay: Phytotoxicity test for field crops (soil treatment test); design: key: 0 (no harm); 9 (complete withered)
Outline: (§3)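 Crops sown in sterilized horticultural soil (pH 6.1, organic material 1.0%) with mixed fertilizer (N:P:K=17:21:17); one day after sowing, soil sprayed with compound in 33% acetone/0.1% Tween-20 at 19˜300 g a.i./ha. Greenhouse at 30±5° C, 14/10 h light/dark; injury scored visually 0–9 versus untreated control at 10 and 20 days.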

cotton = assay: as above; design: key: 0 (no harm); 9 (complete withered)
Outline: as §3

rice = assay: as above; design: key: 0 (no harm); 9 (complete withered)
Outline: as §3

soybean = assay: as above; design: key: 0 (no harm); 9 (complete withered)
Outline: as §3

wheat = assay: as above; design: key: 0 (no harm); 9 (complete withered)
Outline: as §3

[5] = 50 g ai/ha, Corn (10 days after treatment)
[6] = 50 g ai/ha, Corn (20 days after treatment)
[7] = 100 g ai/ha, Corn (10 days after treatment)
[8] = 100 g ai/ha, Corn (20 days after treatment)
[9] = 50 g ai/ha, Cotton (10 days after treatment)
[10] = 50 g ai/ha, Cotton (20 days after treatment)
[11] = 100 g ai/ha, Cotton (10 days after treatment)
[12] = 100 g ai/ha, Cotton (20 days after treatment)
[13] = 50 g ai/ha, Rice (10 days after treatment)
[14] = 50 g ai/ha, Rice (20 days after treatment)
[15] = 100 g ai/ha, Rice (10 days after treatment)
[16] = 100 g ai/ha, Rice (20 days after treatment)
[17] = 50 g ai/ha, Soybean (10 days after treatment)
[18] = 50 g ai/ha, Soybean (20 days after treatment)
[19] = 100 g ai/ha, Soybean (10 days after treatment)
[20] = 100 g ai/ha, Soybean (20 days after treatment)
[21] = 50 g ai/ha, Wheat (10 days after treatment)
[22] = 50 g ai/ha, Wheat (20 days after treatment)
[23] = 100 g ai/ha, Wheat (10 days after treatment)
[24] = 100 g ai/ha, Wheat (20 days after treatment)

Row | Compound | plant injury at 50 g/ha (sorghum) [%] | Foliar treatment herbicidal activity, quack grass (quack grass) | pest or weed control at 50 g/ha (cocklebur [2]) [%] | pest or weed control at 50 g/ha (bindweed) [%] | Soil treatment phytotoxicity, Corn (corn; [5]) | Soil treatment phytotoxicity, Corn (corn; [6]) | Soil treatment phytotoxicity, Corn (corn; [7]) | Soil treatment phytotoxicity, Corn (corn; [8]) | Soil treatment phytotoxicity, Cotton (cotton; [9]) | Soil treatment phytotoxicity, Cotton (cotton; [10]) | Soil treatment phytotoxicity, Cotton (cotton; [11]) | Soil treatment phytotoxicity, Cotton (cotton; [12]) | Soil treatment phytotoxicity, Rice (rice; [13]) | Soil treatment phytotoxicity, Rice (rice; [14]) | Soil treatment phytotoxicity, Rice (rice; [15]) | Soil treatment phytotoxicity, Rice (rice; [16]) | Soil treatment phytotoxicity, Soybean (soybean; [17]) | Soil treatment phytotoxicity, Soybean (soybean; [18]) | Soil treatment phytotoxicity, Soybean (soybean; [19]) | Soil treatment phytotoxicity, Soybean (soybean; [20]) | other results
1 | CON(Cc1nnn(C)n1)c1nc(C(F)(F)F)ccc1C(=O)Nc1nnnn1C [Compound No. 2-30, 2-(methoxy((2-methyl-2H-tetrazol-5-yl)methyl)amino)-N-(1-methyl-1H-tetrazol-5-yl)-6-(trifluoromethyl)nicotinamide] | 20 | 0 | 98 | 60 | 0 | 0 | 0 | 0 | 2 | 9 | 2 | 9 | 4 | 9 | 6 | 9 | 7 | 7 | 7 | 7 | Foliar treatment herbicidal activity, Indian jointvetch (indian jointvetch): 100; Foliar treatment herbicidal activity, velvet leaf (velvetleaf [1]; scale 0-100): 100; Soil treatment herbicidal activity, barnyard grass (barnyard grass): 100; Soil treatment herbicidal activity, velvet leaf (velvetleaf [3]): 100; pest or weed control at 50 g/ha (cocklebur [4]): 90%; Soil treatment phytotoxicity, Wheat (wheat; [21]): 0; Soil treatment phytotoxicity, Wheat (wheat; [22]): 1; Soil treatment phytotoxicity, Wheat (wheat; [23]): 0; Soil treatment phytotoxicity, Wheat (wheat; [24]): 1
2 | Cn1ncnc1COCc1nc(C(F)(F)F)ccc1C(=O)Nc1nnnn1C [Compound No. 1-102, 2-(((1-methyl-1H-1,2,4-triazol-5-yl)methoxy)methyl)-N-(1-methyl-1H-tetrazol-5-yl)-6-(trifluoromethyl)nicotinamide] | 50 | 0 | 80 | 60 | 0 | 0 | 0 | 0 | 0 | 0 | 1 | 2 | 5 | 5 | 5 | 6 | 0 | 0 | 0 | 0 | pest or weed control at 50 g/ha (indian jointvetch): 80%; pest or weed control at 50 g/ha (velvetleaf [1]): 80%; pest or weed control at 50 g/ha (barnyard grass; Echinochloa crus-galli): 20%; pest or weed control at 50 g/ha (velvetleaf [3]; Abutilon theophrasti, read-out: Soil treatment herbicidal activity, velvet leaf): 40%; Soil treatment herbicidal activity, Cocklebur (cocklebur [4]): 0; Soil treatment phytotoxicity, Wheat (wheat; [21]): 0; Soil treatment phytotoxicity, Wheat (wheat; [23]): 0; Soil treatment phytotoxicity, Wheat (wheat; [24]): 0
3 | Cn1nnc(COCc2nc(C(F)(F)Cl)ccc2C(=O)Nc2nnnn2C)n1 [Compound No. 2-78, 6-(chlorodifluoromethyl)-N-(1-methyl-1H-tetrazol-5-yl)-2-(((2-methyl-2H-tetrazol-5-yl)methoxy)methyl)nicotinamide] | 30 | 0 | 60 | 40 | 0 | 0 | 1 | 0 | 2 | 6.5 | 3 | 9 | 6 | 6 | 9 | 9 | 0 | 0 | 0 | 0 | pest or weed control at 50 g/ha (indian jointvetch): 80%; pest or weed control at 50 g/ha (velvetleaf [1]): 60%; Soil treatment herbicidal activity, barnyard grass (barnyard grass): 100; Soil treatment herbicidal activity, velvet leaf (velvetleaf [3]): 100; pest or weed control at 50 g/ha (cocklebur [4]): 70%; Soil treatment phytotoxicity, Wheat (wheat; [21]): 0; Soil treatment phytotoxicity, Wheat (wheat; [22]): 0; Soil treatment phytotoxicity, Wheat (wheat; [23]): 0; Soil treatment phytotoxicity, Wheat (wheat; [24]): 0
4 | Cn1nc(COCc2nc(C(F)(F)F)ccc2C(=O)Nc2nnnn2C)nc1Cl [Compound No. 2-135, 2-(((5-chloro-1-methyl-1H-1,2,4-triazol-3-yl)methoxy)methyl)-N-(1-methyl-1H-tetrazol-5-yl)-6-(trifluoromethyl)nicotinamide] | 30 | 0 | 95 | 70 | 0 | 0 | 0 | 0 | 1 | 3 | 1 | 4 | 6 | 8 | 7 | 8 | 0 | 0 | 2 | 3 | pest or weed control at 50 g/ha (indian jointvetch): 95%; pest or weed control at 50 g/ha (velvetleaf [1]): 40%; Soil treatment herbicidal activity, barnyard grass (barnyard grass): 0; Soil treatment herbicidal activity, velvet leaf (velvetleaf [3]): 0; Soil treatment herbicidal activity, Cocklebur (cocklebur [4]): 0; Soil treatment phytotoxicity, Wheat (wheat; [21]): 0; Soil treatment phytotoxicity, Wheat (wheat; [22]): 0; Soil treatment phytotoxicity, Wheat (wheat; [23]): 0; Soil treatment phytotoxicity, Wheat (wheat; [24]): 0
5 | Cn1nnc(COCc2nc(C(F)(F)F)ccc2C(=O)Nc2nnnn2C)n1 [Compound No. 2-59, N-(1-methyl-1H-tetrazol-5-yl)-2-(((2-methyl-2H-tetrazol-5-yl)methoxy)methyl)-6-(trifluoromethyl)nicotinamide] | 98 | 0 | 98 | 90 | 0 | 0 | 0 | 0 | 1 | 6 | 3 | 9 | 6 | 8 | 8 | 8 | 2 | 5 | 3 | 6 | pest or weed control at 50 g/ha (indian jointvetch): 98%; pest or weed control at 50 g/ha (velvetleaf [1]): 98%; Soil treatment herbicidal activity, barnyard grass (barnyard grass): 100; Soil treatment herbicidal activity, velvet leaf (velvetleaf [3]): 100; pest or weed control at 50 g/ha (cocklebur [4]): 20%; Soil treatment phytotoxicity, Wheat (wheat; [21]): 0; Soil treatment phytotoxicity, Wheat (wheat; [22]): 0; Soil treatment phytotoxicity, Wheat (wheat; [23]): 0; Soil treatment phytotoxicity, Wheat (wheat; [24]): 0
